The values below come from patent publication EP1818058A2, “TREATMENT OF MMP-MEDIATED DERMATOLOGICAL DISEASES WITH PEMIROLAST” (Astion Pharma A/S, priority 2006, dated 2007).

For experiment [1], the system named is arachidonic acid-induced ear-inflammation. The experiment can be described thus: Arachidonic acid-induced ear-inflammation test in mice. In kind it is in vivo, female BALB/cA mice. To be noted: intraperitoneally 30 minutes before arachidonic acid on the right ear. The method, then:
The anti-inflammatory potential of Pemirolast can be tested in "arachidonic acid-induced ear-inflammation test in mice", a commonly employed method for screening and evaluation of antiinflammatory drugs. Dexamethasone was employed as reference compound.
The study can be performed in female BALB/cA mice from M & B A/S, DK-8680 Ry. The test substances (various concentration of Pemirolast dissolved in aqueous solutions) and the reference compound are administered intraperitoneally in volumes of 20 ml per kg body weight 30 minutes before application of arachidonic acid to the ear. All groups are then treated with 20 µl arachidonic acid, 100 mg/ml in acetone, on the right ear. One hour after the application of arachidonic acid the mice are sacrificed, the ears cut from the tip with a punch biopsy knife (8 mm diameter) and weighed. Mean weights and standard deviations are calculated. Relative ear oedema is assessed as the weight difference between right and left ear of each mouse expressed as percent of the left ear. Percent inhibition of the relative ear oedema compared with the vehicle treated groups is calculated for the test substance and reference compound treated groups. […]

Experiment [2] concerns IL-1α. The experiment can be described thus: Cytokine production, LPS induced human PBMC. In kind it is cell-based. To be noted: statement in words only, no value given. The procedure: (§1) The inhibition of Pemirolast on cytokine production was determined using the assay "LPS induced human PBMC".
Experiment [3] deals with TNF-α. The experiment can be described thus: Cytokine production, LPS induced human PBMC. In kind it is cell-based. The note with it: concentration giving 50 % inhibition, read-out: Concentration of Pemirolast. The method, then:
as §1

Experiment [4] relates to acne vulgaris. The experiment can be described thus: Case of treatment of acne vulgaris. The class given is in vivo, person. The source says: A person was suffering from acne vulgaris characterised by comedones and some inflammatory lesions. They had previously regularly used a 5% benzoyl peroxide cream to treat the condition. During a flare up of the condition they applied a 5.0% aqueous solution of Pemirolast (potassium salt) once daily for four weeks to the areas affected. […] The treatment was followed and assessed by a physician.

Experiment [5] concerns the target T1, MMP-1 (Homo sapiens, UniProt P03956).
T1 construct: The methods employ Human rheumatoid synovial fibroblast (MMP-1); endogenous in cells; host or cells: Human rheumatoid synovial fibroblast
T1 sequence (P03956 100-469): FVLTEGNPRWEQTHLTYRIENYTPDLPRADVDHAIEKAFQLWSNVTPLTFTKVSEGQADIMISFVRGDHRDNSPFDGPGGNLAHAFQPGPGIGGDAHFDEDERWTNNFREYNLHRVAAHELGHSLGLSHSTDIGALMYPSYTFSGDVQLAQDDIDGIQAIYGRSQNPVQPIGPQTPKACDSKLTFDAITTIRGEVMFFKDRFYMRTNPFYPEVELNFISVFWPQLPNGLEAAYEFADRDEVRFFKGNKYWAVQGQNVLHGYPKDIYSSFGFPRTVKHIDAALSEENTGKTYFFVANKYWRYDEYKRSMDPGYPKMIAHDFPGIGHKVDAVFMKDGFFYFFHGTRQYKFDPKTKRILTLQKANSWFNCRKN
The experiment can be described thus: MMP enzyme assay (fluorogenic Mca peptide substrate, MDS Pharma Services). The class given is biochemical. To be noted: concentration giving 50 % inhibition; MMP-1 from Human rheumatoid synovial fibroblast; read-out: Concentration of Pemirolast. The method, then: (§2) The inhibitory effect of Pemirolast on human MMP's and cytokines were determined by enzyme assays carried out by MDS Pharma Services.
(§3) The inhibition of MMP's can be determined according to the test methods described by Knight CG, Willenbrock F, Murphy G (A novel coumarin-labelled peptide for sensitive continuous assays of the matrix metalloproteinases, FEBS Lett. 1992 Jan 27;296(3):263-6); Johnson LL, Dyer R, Hupe DJ (Matrix metalloproteinases, Curr Opin Chem Biol. 1998 Aug;2(4):466-71); and Olson MW, Gervasi DC, Mobashery S, Fridman R (Kinetic analysis of the binding of human matrix metalloproteinase-2 and -9 to tissue inhibitor of metalloproteinase (TIMP)-1 and TIMP-2, J Biol Chem. 1997 Nov 21;272(47):29975-83). The methods employ Human rheumatoid synovial fibroblast (MMP-1) and Human recombinant (MMP-2 and MMP-3) and Human recombinant (E.coli) (MMP-7) as the MMP source. The substrate is Mca-Pro-Leu-Gly-Leu-Dpa-Ala-Arg-NH2. The enzymatic reaction is based on the conversion of Mca-Pro-Leu-Gly-Leu-Dpa-Ala-Arg to Mca-Pro-Leu-Gly + Leu-Dpa-Ala-Arg-NH2, where Mca-Pro-Leu-Gly is quantified using spectrofluorimetric quantitation. As reference compounds are employed TIMP-1 and TIMP-2. Such methods are commercially available at MDS Pharma Services.

For experiment [6], the target named is T2, MMP-2 (Homo sapiens, UniProt P08253).
T2 sequence (P08253 110-660): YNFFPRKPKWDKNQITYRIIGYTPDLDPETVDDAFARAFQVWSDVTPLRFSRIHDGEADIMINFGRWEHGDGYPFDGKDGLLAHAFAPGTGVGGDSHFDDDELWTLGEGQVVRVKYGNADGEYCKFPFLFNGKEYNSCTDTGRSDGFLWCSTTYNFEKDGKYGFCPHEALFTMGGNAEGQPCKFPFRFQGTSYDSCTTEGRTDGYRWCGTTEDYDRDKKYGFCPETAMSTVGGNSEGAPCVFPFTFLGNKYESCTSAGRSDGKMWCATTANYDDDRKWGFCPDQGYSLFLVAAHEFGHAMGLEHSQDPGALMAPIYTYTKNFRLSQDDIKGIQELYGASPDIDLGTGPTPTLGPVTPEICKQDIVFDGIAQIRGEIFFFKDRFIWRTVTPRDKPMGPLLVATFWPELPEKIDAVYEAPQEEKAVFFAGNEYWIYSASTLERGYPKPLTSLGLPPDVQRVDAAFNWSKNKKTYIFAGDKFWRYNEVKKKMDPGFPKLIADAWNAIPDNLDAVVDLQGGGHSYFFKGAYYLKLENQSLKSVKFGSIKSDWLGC
The description is as above. In kind it is biochemical. The note with it: concentration giving 50 % inhibition; Human recombinant MMP-2; read-out: Concentration of Pemirolast. The procedure: as §2, §3

Experiment [7] deals with T3, MMP-7 (Homo sapiens, UniProt P09237).
T3 construct: host or cells: E. coli
T3 sequence (P09237 95-267): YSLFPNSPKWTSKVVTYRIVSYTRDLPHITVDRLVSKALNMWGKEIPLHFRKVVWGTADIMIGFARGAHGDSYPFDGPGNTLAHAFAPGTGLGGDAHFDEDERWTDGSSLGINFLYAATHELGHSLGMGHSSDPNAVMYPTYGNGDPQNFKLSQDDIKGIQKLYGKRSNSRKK
The experiment is described as above. In kind it is biochemical. To be noted: concentration giving 50 % inhibition; Human recombinant (E.coli) MMP-7; read-out: Concentration of Pemirolast. The procedure:
as §2, §3

In experiment [8] the target is MMP-3 (Homo sapiens, UniProt P08254). Described as above. The note with it: concentration giving 50 % inhibition; Human recombinant MMP-3; read-out: Concentration of Pemirolast. In kind it is biochemical. The method, then:
as §2, §3

Setting [9] is: person, 5.0% aqueous solution of Pemirolast (potassium salt) once daily for four weeks on affected areas.

MMP-3, sequence (P08254 100-477): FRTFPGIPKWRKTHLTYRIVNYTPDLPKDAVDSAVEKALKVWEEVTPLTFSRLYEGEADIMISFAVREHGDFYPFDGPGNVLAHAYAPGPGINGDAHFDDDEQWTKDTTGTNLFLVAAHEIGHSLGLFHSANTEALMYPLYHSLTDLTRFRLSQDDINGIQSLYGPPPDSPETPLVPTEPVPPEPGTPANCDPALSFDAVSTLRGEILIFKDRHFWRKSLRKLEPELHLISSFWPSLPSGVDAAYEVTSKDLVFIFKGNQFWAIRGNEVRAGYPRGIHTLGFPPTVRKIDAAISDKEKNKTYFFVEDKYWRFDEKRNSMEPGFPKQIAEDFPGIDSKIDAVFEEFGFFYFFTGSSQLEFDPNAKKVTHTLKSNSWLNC

On to `Cc1cccn2c(=O)c(-c3nnn[nH]3)cnc12` [Pemirolast, 9-methyl-3-(1H-tetrazol-5-yl)-4H-pyrido[1,2-a]pyrimidin-4-one], for which the “inflammatory reaction in the arachidionic acid treated ear” value in experiment [1] was “significantly prevented the inflammatory reaction”. Besides, the “inhibition of IL-1α” value in experiment [2] is reported as “inhibits”. Further, the IC50 in experiment [3] is 100 µM; in experiment [5], 18 µM; in experiment [6], 25 µM; in experiment [7], 32 µM; in experiment [8], 32 µM. In addition, in experiment [4] (setting [9]), the “inflamed area surrounding the lesion” value is “recessed without any noticeable scarring”. The inflammatory lesions entry in experiment [4] (setting [9]) is “completely recessed”.

With `O=C(OOC(=O)c1ccccc1)c1ccccc1` [benzoyl peroxide], in experiment [4] (same patient, usual previous treatment with 5% benzoyl peroxide cream), the reddened inflamed area entry is “did not remove the reddened inflamed area”.
